Measured values published in patent publication US20070155764A1, “NOVEL SUBSTITUTED PYRIMIDINYLOXY UREAS USEFUL AS INHIBITORS OF PROTEIN KINASES” (KALYPSYS, INC., priority 2005, published 2007).

Assays:
[1] = target: T1, PDGFRβ kinase (Homo sapiens, UniProt P09619); assay: In vitro PDGFRβ kinase assay; type: biochemical; conditions: ADP Quest assay, poly Glu:Tyr substrate, 60 μM ATP
T1 construct: purchased Invitrogen Inc. P3082
Procedure, shortened: (§1)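 Compound was preincubated 10 min at ~22 °C with 20 ng VEGFR2 or 25 ng PDGFRβ, then poly Glu:Tyr (4:1) substrate (0.25 μg) with 60 μM ATP (in added buffer) was reacted 2 h at 30 °C. ADP Quest resorufin fluorescence was read (ex 530/em 580) after 30 min. Efficacy is expressed as percent of positive-control (Bay 43-9006) activity, with DMSO as negative control.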

[2] = system: HT-29 human colon carcinoma tumor cells; assay: In vivo anti-tumor activity, HT-29 xenograft; conditions: 60 mg/kg once daily by oral gavage; for T/C (%): HT-29 subcutaneous tumors in female Balb/C nu/nu mice, treated/control average tumor size at end of study; for Survival: HT-29 tumor-bearing female Balb/C nu/nu mice, surviving/total
Experimental: In Vivo Anti-Tumor Activity
Acclimated female Balb/C nu/nu mice are injected subcutaneously into the flank with cell pellets of 5×10^6 HT-29 human colon carcinoma tumor cells (ATCC #HTB-38). The mice are fed sterile rodent chow and water ad libitum, and kept in pathogen-free, sterile-filtered cages with half-day light/dark cycles. Tumors are allowed to grow until they reach an average size of 100-150 mm^3, determined by caliper measurement. One day before beginning treatment, mice are randomized by tumor size into evenly distributed cohorts. Mice are dosed once daily by oral gavage (10 ml/kg) with compounds formulated as solutions in Cremaphor EL:Ethanol:Water, at a 1:1:6 ratio. Control mice are dosed with the formulation vehicle only. Tumor size and mouse weight are monitored every three to four days. At the end of the study, treatment efficacy is determined by the T/C value, calculated by dividing the average tumor size of a compound-treated cohort by the average tumor size of the control-treated cohort, expressed as a percentage. Therefore, anti-tumor efficacy is inversely proportional to the T/C.

[3] = target: T2, human B-Raf protein kinase (Homo sapiens, UniProt P15056); assay: In vitro B-Raf/Mek1 composite kinase assay; type: biochemical; conditions: recombinant GST-tagged human B-Raf (Δ1-415) with inactive Mek1, 2 μM ATP
T2 construct: GST (N); purchased Upstate Inc. 14-530 (B-Raf); 14-420 (Mek1)
Procedure, shortened: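 Luminescent ATP-depletion assay using recombinant N-terminal GST-tagged human B-Raf (Δ1-415, 1 ng/well) in MOPS pH 7.2 buffer with 10 mM MgCl2. Compounds were preincubated 15 min at about 22° C, then the reaction ran 2 h before PKLight readout. Efficacy is expressed as percentage of positive-control (Bay 43-9006) activity.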

[4] = target: T3, VEGFR2 kinase (Homo sapiens, UniProt P35968); assay: In vitro VEGFR2 kinase assay; type: biochemical; conditions: ADP Quest assay, poly Glu:Tyr substrate, 60 μM ATP
T3 construct: purchased Invitrogen Inc PV3660
Procedure, shortened: as §1

T1 sequence (P09619 33-1106): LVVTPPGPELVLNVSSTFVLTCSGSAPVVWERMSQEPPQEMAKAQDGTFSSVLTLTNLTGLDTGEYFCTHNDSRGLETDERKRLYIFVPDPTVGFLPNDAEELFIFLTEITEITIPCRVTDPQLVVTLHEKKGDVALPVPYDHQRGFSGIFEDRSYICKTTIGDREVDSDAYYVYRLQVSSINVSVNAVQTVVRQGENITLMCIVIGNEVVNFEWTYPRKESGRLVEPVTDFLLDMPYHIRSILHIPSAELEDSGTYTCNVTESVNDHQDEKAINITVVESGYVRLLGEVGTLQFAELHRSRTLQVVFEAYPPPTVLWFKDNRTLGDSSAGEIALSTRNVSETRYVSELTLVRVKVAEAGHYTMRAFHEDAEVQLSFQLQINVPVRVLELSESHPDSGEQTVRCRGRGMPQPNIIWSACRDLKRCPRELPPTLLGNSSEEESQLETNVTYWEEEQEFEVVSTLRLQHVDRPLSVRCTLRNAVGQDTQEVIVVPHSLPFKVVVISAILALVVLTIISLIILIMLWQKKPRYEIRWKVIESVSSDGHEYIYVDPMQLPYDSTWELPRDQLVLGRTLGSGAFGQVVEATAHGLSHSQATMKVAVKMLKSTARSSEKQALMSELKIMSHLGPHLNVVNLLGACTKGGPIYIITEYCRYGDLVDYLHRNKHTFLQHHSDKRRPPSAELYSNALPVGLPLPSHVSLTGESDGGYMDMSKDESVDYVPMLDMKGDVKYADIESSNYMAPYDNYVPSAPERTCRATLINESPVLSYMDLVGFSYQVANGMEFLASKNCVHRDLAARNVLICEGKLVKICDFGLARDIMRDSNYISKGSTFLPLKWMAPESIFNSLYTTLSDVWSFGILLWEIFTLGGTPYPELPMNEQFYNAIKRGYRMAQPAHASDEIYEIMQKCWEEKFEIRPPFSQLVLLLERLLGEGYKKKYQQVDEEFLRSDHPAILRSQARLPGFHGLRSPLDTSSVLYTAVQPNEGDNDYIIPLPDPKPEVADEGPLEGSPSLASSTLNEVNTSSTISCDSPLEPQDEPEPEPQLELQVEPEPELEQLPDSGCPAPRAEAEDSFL
T3 sequence (P35968 20-1356): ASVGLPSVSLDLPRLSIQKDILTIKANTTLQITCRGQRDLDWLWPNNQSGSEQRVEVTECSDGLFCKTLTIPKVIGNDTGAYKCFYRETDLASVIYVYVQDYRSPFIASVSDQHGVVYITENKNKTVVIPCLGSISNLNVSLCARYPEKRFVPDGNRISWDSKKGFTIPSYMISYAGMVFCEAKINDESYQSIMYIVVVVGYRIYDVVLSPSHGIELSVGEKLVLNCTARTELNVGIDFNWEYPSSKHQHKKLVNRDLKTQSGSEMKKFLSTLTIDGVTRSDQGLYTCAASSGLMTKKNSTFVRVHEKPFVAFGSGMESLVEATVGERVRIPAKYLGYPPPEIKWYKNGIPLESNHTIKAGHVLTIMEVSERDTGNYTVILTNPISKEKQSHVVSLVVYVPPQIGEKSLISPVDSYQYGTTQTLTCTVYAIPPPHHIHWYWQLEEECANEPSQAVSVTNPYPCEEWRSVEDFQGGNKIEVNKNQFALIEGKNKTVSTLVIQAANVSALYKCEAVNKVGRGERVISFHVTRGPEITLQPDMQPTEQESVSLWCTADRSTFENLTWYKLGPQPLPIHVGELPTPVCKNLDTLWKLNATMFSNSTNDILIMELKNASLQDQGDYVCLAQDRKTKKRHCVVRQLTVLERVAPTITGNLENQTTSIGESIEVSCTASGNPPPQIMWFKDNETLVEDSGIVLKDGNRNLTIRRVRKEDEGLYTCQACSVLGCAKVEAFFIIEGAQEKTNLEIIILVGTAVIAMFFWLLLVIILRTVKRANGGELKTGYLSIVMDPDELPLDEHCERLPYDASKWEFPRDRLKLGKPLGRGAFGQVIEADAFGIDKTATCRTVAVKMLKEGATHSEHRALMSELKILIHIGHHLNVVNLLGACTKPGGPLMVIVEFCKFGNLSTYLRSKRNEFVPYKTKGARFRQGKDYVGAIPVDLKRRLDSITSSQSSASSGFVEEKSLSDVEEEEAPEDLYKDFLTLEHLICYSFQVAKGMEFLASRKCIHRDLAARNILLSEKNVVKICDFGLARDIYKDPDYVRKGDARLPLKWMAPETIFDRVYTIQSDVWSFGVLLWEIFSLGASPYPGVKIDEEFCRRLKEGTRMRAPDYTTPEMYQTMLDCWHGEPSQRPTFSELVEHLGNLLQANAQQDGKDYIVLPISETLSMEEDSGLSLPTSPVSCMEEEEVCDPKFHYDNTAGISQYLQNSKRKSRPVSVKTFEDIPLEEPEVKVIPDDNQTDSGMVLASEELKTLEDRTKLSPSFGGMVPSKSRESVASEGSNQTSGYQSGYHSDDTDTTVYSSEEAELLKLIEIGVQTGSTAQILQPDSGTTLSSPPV
T2 sequence (P15056 416-766): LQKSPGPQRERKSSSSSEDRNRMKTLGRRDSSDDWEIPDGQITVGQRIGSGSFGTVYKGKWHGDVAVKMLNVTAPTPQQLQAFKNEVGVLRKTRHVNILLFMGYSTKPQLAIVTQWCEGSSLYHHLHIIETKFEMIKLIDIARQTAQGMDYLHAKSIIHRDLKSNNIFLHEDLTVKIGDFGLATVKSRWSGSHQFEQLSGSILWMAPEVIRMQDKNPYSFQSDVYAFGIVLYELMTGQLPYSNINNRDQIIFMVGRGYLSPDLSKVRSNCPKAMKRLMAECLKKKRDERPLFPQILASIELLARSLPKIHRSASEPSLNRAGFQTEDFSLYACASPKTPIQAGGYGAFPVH

SMILES | IC50 [1] [µM] | T/C (%) [2] [%] | Survival [2] | IC50 [3] [µM] | IC50 [4] [µM]
Cn1cc(-c2cc(Oc3cccc(NC(=O)Nc4ccc(Cl)c(C(F)(F)F)c4)c3)ncn2)cn1 [Example 34, 1-(4-Chloro-3-(trifluoromethyl)phenyl)-3-(3-(6-(1-methyl-1H-pyrazol-4-yl)pyrimidin-4-yloxy)phenyl)urea] | ≤ 10 | 20 | 10/10 | ≤ 10 | ≤ 10
Cn1cc(-c2nccc(Oc3ccc(NC(=O)Nc4ccc(Cl)c(C(F)(F)F)c4)cc3)n2)cn1 [Example 65, 1-(4-Chloro-3-(trifluoromethyl)phenyl)-3-(4-(2-(1-methyl-1H-pyrazol-4-yl)pyrimidin-4-yloxy)phenyl)urea] | ≤ 10 | 25 | 10/10 | ≤ 10 | ≤ 10
Cn1cc(-c2cc(Oc3ccc(F)c(NC(=O)Nc4ccc(Cl)c(C(F)(F)F)c4)c3)ncn2)cn1 [Example 66, 1-(4-Chloro-3-(trifluoromethyl)phenyl)-3-(2-fluoro-5-(6-(1-methyl-1H-pyrazol-4-yl)pyrimidin-4-yloxy)phenyl)urea] | ≤ 10 | 11 | 10/10 | ≤ 10 | ≤ 10
Cn1cc(-c2cc(Oc3cccc(NC(=O)Nc4ccc(C(F)(F)F)cc4)c3)ncn2)cn1 [Example 87, 1-(3-(6-(1-Methyl-1H-pyrazol-4-yl)pyrimidin-4-yloxy)phenyl)-3-(4-(trifluoromethyl)phenyl)urea] | ≤ 10 | 15 | 10/10 | ≤ 10 | ≤ 10
Cn1cc(-c2nccc(Oc3ccc(NC(=O)Nc4ccc(C(F)(F)F)cc4)cc3)n2)cn1 [Example 102, 1-(4-(2-(1-Methyl-1H-pyrazol-4-yl)pyrimidin-4-yloxy)phenyl)-3-(4-(trifluoromethyl)phenyl)urea] | ≤ 10 | – | – | ≤ 10 | ≤ 10
Cc1cc(NC(=O)Nc2cc(Oc3cc(-c4cnn(C)c4)ncn3)ccc2F)no1 [Example 104, 1-(2-Fluoro-5-(6-(1-methyl-1H-pyrazol-4-yl)pyrimidin-4-yloxy)phenyl)-3-(5-methylisoxazol-3-yl)urea] | ≤ 10 | – | – | ≤ 10 | ≤ 10
Cc1cc(NC(=O)Nc2ccc(Oc3ccnc(-c4cnn(C)c4)n3)cc2)no1 [Example 105, 1-(4-(2-(1-Methyl-1H-pyrazol-4-yl)pyrimidin-4-yloxy)phenyl)-3-(5-methylisoxazol-3-yl)urea] | ≤ 10 | – | – | > 10 | ≤ 10
O=C(Nc1cccc(Oc2cc(-c3ccnc4ccnn34)ncn2)c1)Nc1ccc(Cl)c(C(F)(F)F)c1 [Example 106, 1-(4-Chloro-3-(trifluoromethyl)phenyl)-3-(3-(6-(pyrazolo[1,5-a]pyrimidin-7-yl)pyrimidin-4-yloxy)phenyl)urea] | ≤ 10 | – | – | ≤ 10 | ≤ 10
O=C(Nc1cccc(Oc2cc(-c3ccnc4ncnn34)ncn2)c1)Nc1ccc(Cl)c(C(F)(F)F)c1 [Example 107, 1-(3-(6-([1,2,4]Triazolo[1,5-a]pyrimidin-7-yl)pyrimidin-4-yloxy)phenyl)-3-(4-chloro-3-(trifluoromethyl)phenyl)urea] | ≤ 10 | – | – | ≤ 10 | ≤ 10
CN(C(=O)Nc1ccc(Oc2ccnc(-c3nnco3)c2)cc1)c1ccc(Cl)c(C(F)(F)F)c1 [Example 108, 3-(4-(2-(1,3,4-Oxadiazol-2-yl)pyridin-4-yloxy)phenyl)-1-(4-chloro-3-(trifluoromethyl)phenyl)-1-methylurea] | > 10 | – | – | > 10 | > 10
CN(C(=O)Nc1cccc(Oc2ccnc(-c3nnco3)c2)c1)c1ccc(Cl)c(C(F)(F)F)c1 [Example 109, 3-(3-(2-(1,3,4-Oxadiazol-2-yl)pyridin-4-yloxy)phenyl)-1-(4-chloro-3-(trifluoromethyl)phenyl)-1-methylurea] | > 10 | – | – | ≤ 10 | > 10
CN(C(=O)Nc1ccc(Cl)c(C(F)(F)F)c1)c1ccc(Oc2ccnc(-c3nnco3)c2)cc1 [Example 110, 1-(4-(2-(1,3,4-Oxadiazol-2-yl)pyridin-4-yloxy)phenyl)-3-(4-chloro-3-(trifluoromethyl)phenyl)-1-methylurea] | ≤ 10 | – | – | ≤ 10 | ≤ 10
CN(C(=O)Nc1ccc(Cl)c(C(F)(F)F)c1)c1cccc(Oc2ccnc(-c3nnco3)c2)c1 [Example 111] | ≤ 10 | – | – | > 10 | > 10
Cc1ccc(F)c(NC(=O)N(C)c2ccc(Oc3ccnc(-c4nnco4)c3)cc2)c1 [Example 112, 3-(2-Fluoro-5-methyl-phenyl)-1-methyl-1-[4-(2-[1,3,4]oxadiazol-2-yl-pyridin-4-yloxy)-phenyl]-urea] | ≤ 10 | – | – | ≤ 10 | > 10
CN(C(=O)Nc1ccc(Cl)c(Cl)c1)c1ccc(Oc2ccnc(-c3nnco3)c2)cc1 [Example 113, 3-(3,4-Dichloro-phenyl)-1-methyl-1-[4-(2-[1,3,4]oxadiazol-2-yl-pyridin-4-yloxy)-phenyl]-urea] | ≤ 10 | – | – | ≤ 10 | > 10
CNC(=O)c1cc(Oc2ccc(N(C)C(=O)Nc3ccc(Cl)c(C(F)(F)F)c3)cc2)ccn1 [Example 114, 4-{4-[3-(4-Chloro-3-trifluoromethyl-phenyl)-1-methyl-ureido]-phenoxy}-pyridine-2-carboxylic acid methylamide] | ≤ 10 | – | – | ≤ 10 | ≤ 10
CNC(=O)c1cccc(NC(=O)N(C)c2ccc(Oc3ccnc(C(=O)NC)c3)cc2)c1 [Example 115, 4-{4-[1-Methyl-3-(3-methylcarbamoyl-phenyl)-ureido]-phenoxy}-pyridine-2-carboxylic acid methylamide] | > 10 | – | – | ≤ 10 | > 10
CNC(=O)c1cc(NC(=O)N(C)c2ccc(Oc3ccnc(C(=O)NC)c3)cc2)cc(C(F)(F)F)c1 [Example 116, 4-{4-[1-Methyl-3-(3-methylcarbamoyl-5-trifluoromethyl-phenyl)-ureido]-phenoxy}-pyridine-2-carboxylic acid methylamide] | ≤ 10 | – | – | > 10 | ≤ 10
CNC(=O)c1cc(Oc2ccc(N(C)C(=O)Nc3cc(OCCOC)cc(C(F)(F)F)c3)cc2)ccn1 [Example 117, 4-(4-{3-[3-(2-Methoxy-ethoxy)-5-trifluoromethyl-phenyl]-1-methyl-ureido}-phenoxy)-pyridine-2-carboxylic acid methylamide] | ≤ 10 | – | – | > 10 | ≤ 10
CNC(=O)c1cc(Oc2ccc(N(C)C(=O)Nc3cc(-n4cnc(C)c4)cc(C(F)(F)F)c3)cc2)ccn1 [Example 118, 4-(4-{1-Methyl-3-[3-(4-methyl-imidazol-1-yl)-5-trifluoromethyl-phenyl]-ureido}-phenoxy)-pyridine-2-carboxylic acid methylamide] | ≤ 10 | – | – | ≤ 10 | ≤ 10
CN(C(=O)Nc1ccc(Cl)c(C(F)(F)F)c1)c1ccc(Oc2ccnc(-c3cnn(C)c3)c2)cc1 [Example 119, 3-(4-Chloro-3-trifluoromethyl-phenyl)-1-methyl-1-{4-[2-(1-methyl-1H-pyrazol-4-yl)-pyridin-4-yloxy]-phenyl}-urea] | ≤ 10 | – | – | ≤ 10 | ≤ 10
CN(C(=O)Nc1ccc(Cl)c(C(F)(F)F)c1)c1ccc(Oc2ccnc(-c3nc(C(F)(F)F)c[nH]3)c2)cc1 [Example 120, 3-(4-Chloro-3-trifluoromethyl-phenyl)-1-methyl-1-{4-[2-(4-trifluoromethyl-1H-imidazol-2-yl)-pyridin-4-yloxy]-phenyl}-urea] | ≤ 10 | – | – | ≤ 10 | ≤ 10
